From PubChem BioAssay (NCI)
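Cells were grown in 96-well plates and exposed to each compound for 48 hours at five concentrations; endpoints were interpolated linearly between bracketing concentrations, or set to the highest concentration if not reached. TGI: total growth inhibition.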

Experiments:
Experiment in all cases: inhibition of tumour cell growth, NCI panel, 48 h
M14 melanoma = system: M14 melanoma
DLD-1 colon = system: DLD-1 colon
A498 renal = system: A498 renal
SN12C renal = system: SN12C renal
EKVX NSCLC = system: EKVX NSCLC
CCRF-CEM leukemia = system: CCRF-CEM leukemia
COLO 205 colon = system: COLO 205 colon
NCI-H226 lung = system: NCI-H226 lung
NCI-H23 lung = system: NCI-H23 lung
CAKI-1 renal = system: CAKI-1 renal
SF-539 CNS = system: SF-539 CNS
HCT-15 colon = system: HCT-15 colon
A549 NSCLC = system: A549 NSCLC
SNB-75 CNS = system: SNB-75 CNS
ACHN renal = system: ACHN renal
UACC-257 melanoma = system: UACC-257 melanoma
HT29 colon = system: HT29 colon
786-0 renal = system: 786-0 renal
RPMI-8226 leukemia = system: RPMI-8226 leukemia
OVCAR-3 ovarian = system: OVCAR-3 ovarian
HL-60(TB) leukemia = system: HL-60(TB) leukemia
SNB-19 CNS = system: SNB-19 CNS
IGROV1 ovarian = system: IGROV1 ovarian
NCI-H460 lung = system: NCI-H460 lung
UO-31 renal = system: UO-31 renal
HOP-62 NSCLC = system: HOP-62 NSCLC
SNB-78 CNS = system: SNB-78 CNS
SK-MEL-2 melanoma = system: SK-MEL-2 melanoma
LXFL 529 NSCLC = system: LXFL 529 NSCLC
M19-MEL melanoma = system: M19-MEL melanoma
K-562 leukemia = system: K-562 leukemia
SF-268 CNS = system: SF-268 CNS
RXF 393 renal = system: RXF 393 renal
HCC-2998 colon = system: HCC-2998 colon
SK-OV-3 ovarian = system: SK-OV-3 ovarian
TK-10 renal = system: TK-10 renal
HOP-92 NSCLC = system: HOP-92 NSCLC
MALME-3M melanoma = system: MALME-3M melanoma
SK-MEL-5 melanoma = system: SK-MEL-5 melanoma
OVCAR-8 ovarian = system: OVCAR-8 ovarian
HCT-116 colon = system: HCT-116 colon
U251 CNS = system: U251 CNS
SW-620 colon = system: SW-620 colon
KM12 colon = system: KM12 colon
KM20L2 colon = system: KM20L2 colon
SF-295 CNS = system: SF-295 CNS
LOX IMVI melanoma = system: LOX IMVI melanoma
UACC-62 melanoma = system: UACC-62 melanoma
MOLT-4 leukemia = system: MOLT-4 leukemia
OVCAR-5 ovarian = system: OVCAR-5 ovarian
SK-MEL-28 melanoma = system: SK-MEL-28 melanoma
MDA-MB-231 breast = system: MDA-MB-231 breast
DU-145 prostate = system: DU-145 prostate
T-47D breast = system: T-47D breast
NCI/ADR-RES ovarian = system: NCI/ADR-RES ovarian
MDA-N = system: MDA-N
OVCAR-4 ovarian = system: OVCAR-4 ovarian
PC-3 prostate = system: PC-3 prostate
MCF7 breast = system: MCF7 breast
BT-549 breast = system: BT-549 breast
HS 578T breast = system: HS 578T breast
MDA-MB-435 = system: MDA-MB-435
SR leukemia = system: SR leukemia
NCI-H522 lung = system: NCI-H522 lung

`Cc1ccc(S(=O)(=O)NNC(=O)c2sc(-c3nc(C)c(C(=O)NNS(=O)(=O)c4ccc(C)cc4)s3)nc2C)cc1` was tested, and the TGI (M14 melanoma) was > 100 µM, the TGI (DLD-1 colon) was > 100 µM and the TGI (A498 renal) was > 100 µM. For the same compound, the TGI (SN12C renal) was > 100 µM, the TGI (EKVX NSCLC) was > 100 µM and the TGI (CCRF-CEM leukemia) was > 100 µM. For the same compound, the TGI (COLO 205 colon) was > 100 µM, the TGI (NCI-H226 lung) was > 100 µM and the TGI (NCI-H23 lung) was > 100 µM. The TGI (CAKI-1 renal) was > 100 µM, the TGI (SF-539 CNS) was > 100 µM and the TGI (HCT-15 colon) was > 100 µM. The TGI (A549 NSCLC) was > 100 µM, the TGI (SNB-75 CNS) was > 100 µM and the TGI (ACHN renal) was > 100 µM. The TGI (UACC-257 melanoma) was > 100 µM, the TGI (HT29 colon) was > 100 µM and the TGI (786-0 renal) was > 100 µM. The TGI (RPMI-8226 leukemia) was > 100 µM, the TGI (OVCAR-3 ovarian) was > 100 µM and the TGI (HL-60(TB) leukemia) was > 100 µM. The TGI (SNB-19 CNS) was > 100 µM, the TGI (IGROV1 ovarian) was > 100 µM and the TGI (NCI-H460 lung) was > 100 µM. The TGI (UO-31 renal) was 99.7 µM, the TGI (HOP-62 NSCLC) was > 100 µM and the TGI (SNB-78 CNS) was > 100 µM. For the same compound, the TGI (SK-MEL-2 melanoma) was > 100 µM, the TGI (LXFL 529 NSCLC) was > 100 µM and the TGI (M19-MEL melanoma) was > 100 µM. The TGI (K-562 leukemia) was > 100 µM, the TGI (SF-268 CNS) was > 100 µM and the TGI (RXF 393 renal) was > 100 µM. For the same compound, the TGI (HCC-2998 colon) was > 100 µM, the TGI (SK-OV-3 ovarian) was > 100 µM and the TGI (TK-10 renal) was > 100 µM. The TGI (HOP-92 NSCLC) was > 100 µM, the TGI (MALME-3M melanoma) was > 100 µM and the TGI (SK-MEL-5 melanoma) was > 100 µM. The TGI (OVCAR-8 ovarian) was > 100 µM, the TGI (HCT-116 colon) was > 100 µM and the TGI (U251 CNS) was > 100 µM. The TGI (SW-620 colon) was > 100 µM, the TGI (KM12 colon) was > 100 µM and the TGI (KM20L2 colon) was > 100 µM. For the same compound, the TGI (SF-295 CNS) was > 100 µM, the TGI (LOX IMVI melanoma) was > 100 µM and the TGI (UACC-62 melanoma) was > 100 µM. For the same compound, the TGI (MOLT-4 leukemia) was > 100 µM, the TGI (OVCAR-5 ovarian) was > 100 µM and the TGI (SK-MEL-28 melanoma) was > 100 µM.
`CC(=O)OC1COC(n2nc(/C=C/c3ccc(Cl)cc3)c(=O)n(/N=C/c3ccccc3)c2=S)C(OC(C)=O)C1OC(C)=O` (stereo not given) was tested, and the TGI (M14 melanoma) was > 100 µM, the TGI (MDA-MB-231 breast) was > 100 µM and the TGI (A498 renal) was > 100 µM. The TGI (DU-145 prostate) was > 100 µM, the TGI (SN12C renal) was > 100 µM and the TGI (EKVX NSCLC) was > 100 µM. For the same compound, the TGI (T-47D breast) was > 100 µM, the TGI (NCI/ADR-RES ovarian) was > 100 µM and the TGI (CCRF-CEM leukemia) was > 100 µM. For the same compound, the TGI (COLO 205 colon) was > 100 µM, the TGI (NCI-H226 lung) was > 100 µM and the TGI (NCI-H23 lung) was > 100 µM. For the same compound, the TGI (CAKI-1 renal) was > 100 µM, the TGI (SF-539 CNS) was > 100 µM and the TGI (HCT-15 colon) was > 100 µM. For the same compound, the TGI (A549 NSCLC) was > 100 µM, the TGI (SNB-75 CNS) was > 100 µM and the TGI (MDA-N) was > 100 µM. The TGI (ACHN renal) was > 100 µM, the TGI (UACC-257 melanoma) was > 100 µM and the TGI (HT29 colon) was > 100 µM. The TGI (786-0 renal) was > 100 µM, the TGI (OVCAR-4 ovarian) was > 100 µM and the TGI (RPMI-8226 leukemia) was > 100 µM. The TGI (PC-3 prostate) was > 100 µM, the TGI (OVCAR-3 ovarian) was > 100 µM and the TGI (HL-60(TB) leukemia) was > 100 µM. The TGI (SNB-19 CNS) was > 100 µM, the TGI (IGROV1 ovarian) was > 100 µM and the TGI (NCI-H460 lung) was > 100 µM. The TGI (UO-31 renal) was > 100 µM, the TGI (HOP-62 NSCLC) was > 100 µM and the TGI (MCF7 breast) was > 100 µM. For the same compound, the TGI (BT-549 breast) was > 100 µM, the TGI (SK-MEL-2 melanoma) was > 100 µM and the TGI (HS 578T breast) was > 100 µM. For the same compound, the TGI (K-562 leukemia) was > 100 µM, the TGI (SF-268 CNS) was > 100 µM and the TGI (RXF 393 renal) was > 100 µM. The TGI (HCC-2998 colon) was > 100 µM, the TGI (SK-OV-3 ovarian) was > 100 µM and the TGI (TK-10 renal) was > 100 µM. For the same compound, the TGI (HOP-92 NSCLC) was > 100 µM, the TGI (MALME-3M melanoma) was > 100 µM and the TGI (SK-MEL-5 melanoma) was > 100 µM. The TGI (OVCAR-8 ovarian) was > 100 µM, the TGI (HCT-116 colon) was > 100 µM and the TGI (U251 CNS) was > 100 µM. The TGI (SW-620 colon) was > 100 µM, the TGI (KM12 colon) was > 100 µM and the TGI (MDA-MB-435) was > 100 µM. The TGI (SF-295 CNS) was > 100 µM, the TGI (LOX IMVI melanoma) was > 100 µM and the TGI (UACC-62 melanoma) was > 100 µM. For the same compound, the TGI (MOLT-4 leukemia) was > 100 µM, the TGI (OVCAR-5 ovarian) was > 100 µM and the TGI (SR leukemia) was > 100 µM. The TGI (SK-MEL-28 melanoma) was > 100 µM and the TGI (NCI-H522 lung) was > 100 µM.
